In assay [1] the test system is THP-1 cells. Kind of assay: hMCP-1 mediated chemotaxis of THP-1 cells. In kind it is cell-based, human. The conditions noted are these: 2 h at 37° C. The method, then: In vitro chemotaxis assays were performed using the human monocytic cell line THP-1. Cell migration through polycarbonate membranes was measured by enumerating those passing through either directly by Coulter counting or indirectly by use of a colourimetric viability assay measuring the cleavage of a tetrazolium salt by the mitochondrial respiratory chain (Scudiero D. A. et al. 1988, Cancer Res., 48, 4827-4833).
Chemoattractants were introduced into a 96-well microtitre plate which forms the lower well of a chemotaxis chamber fitted with a PVP-free 5 μm poresize polycarbonate adhesive framed filter membrane (NeuroProbe MB series, Cabin John, Md. 20818, USA) according to the manufacturer's instructions. […] The plate was incubated at 37° C. for 3 h and the absorbance of the soluble formazan product was read on a microtitre plate reader at 450 nm. The data was input into a spreadsheet, corrected for any random migration in the absence of chemoattractant and the average absorbance values, standard error of the mean, and significance tests were calculated. bMCP-1 induced concentration dependent cell migration with a characteristic biphasic response, maximal 0.5-1.0 nm.

For assay [2], the system named is THP-1 cells. As to the kind of experiment: MCP-1 mediated calcium flux in THP-1 cells. In kind it is cell-based, human. Particulars: FURA-2, stimulation with hMCP-1, read-out: EC50 of rise in [Ca2+]i. The method, then: The human monocytic cell line TIP-1 was grown in a synthetic cell culture medium RPM 1640 supplemented with 10% foetal calf serum, 6 mM glutamine and Penicillin-Streptomycin (at 50 μg streptomycin/ml, Gibeo BRL). THP-1 cells were washed in HBSS (lacking Ca^2+ and Mg^2+)+1 mg/ml BSA and resuspended in the same buffer at a density of 3×10^6 cells/ml. The cells were then loaded with […] FURA-2/AM for 30 mrin at 37° C., washed twice in HBSS, and resuspended at 1×10^6 cells/ml. TrP-1 cell suspension (0.9 ml) was added to a 5 ml disposable cuvette containing a magnetic stirrer bar and 2.1 ml of prewarmed (37° C.) HBSS containing 1 mg/ml BSA, 1 mM MgCl2 and 2 mM CaCl2. The cuvette was placed in a fluorescence spectrophotometer (Perkin Elner, Norwalk, Conn.) and preincubated for 4 min at 37° C. with stirring. Fluorescence was recorded over 70 sec and cells were stimulated by addition of hMCP-1 to the cuvette after 10 sec. [Ca^2+]i was measured by excitation at 340 nm and 380 nm alternately and subsequent measurement of the intensity of the fluorescence emission at 510 nm.
where the Kd for FURA-2 Ca^2+ complex at 37° C. was taken to be 224 nm. […]
Background: Calcium flux is commonly read through the fluorescence of an indicator in the cells.

The next assay deals with T1, MCP-1 receptor B (CCR2B) (Homo sapiens, UniProt P41597).
T1 construct: expressed in transfected cells; membrane fragments
T1 sequence (P41597 1-360 isoform P41597-2): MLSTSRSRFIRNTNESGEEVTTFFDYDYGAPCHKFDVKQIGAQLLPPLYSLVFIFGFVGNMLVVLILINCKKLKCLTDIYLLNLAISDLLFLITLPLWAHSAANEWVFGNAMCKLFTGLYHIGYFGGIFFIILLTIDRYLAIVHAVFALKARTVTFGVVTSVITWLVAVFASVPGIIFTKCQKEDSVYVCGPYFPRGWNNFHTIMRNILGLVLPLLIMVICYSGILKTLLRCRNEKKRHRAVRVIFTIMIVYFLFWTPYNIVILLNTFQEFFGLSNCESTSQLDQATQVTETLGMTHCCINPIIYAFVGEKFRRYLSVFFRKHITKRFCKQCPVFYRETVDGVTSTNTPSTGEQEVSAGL
As to the kind of experiment: hMCP-1 receptor binding assay (125I-MCP-1, CHO-CCR2B cell membranes). The text has this: The MCP-1 receptor B (CCR2B) cDNA was cloned by PCR from ThP-1 cell RNA using suitable oligonucleotide primers based on the published MCP-1 receptor sequences (Charo et al., 1994, Proc. Natl. Acad. Sci. USA, 91, 2752). The resulting PCR products were cloned into vector PCR-II™ (In Vitrogen, San Diego, Calif.). Error free CCR2B cDNA was subcloned as a Hind III-Not I fragment into the eukaryotic expression vector pCDNA3 (In Vitrogen) to generate pCDNA3/CC-CKR2A and pCDNA3/CCR2B respectively.
Linearised pCDNA3/CCR2B DNA was transfected into CHO-K1 cells by calcium phosphate precipitation (Wigler et al., 1979, Cell, 16, 777). Transfected cells were selected by the addition of Geneticin Sulphate (G418, Gibeo BRL) at 1 mg/ml, 24 hours after the cells had been transfected. Preparation of RNA and Northern blotting were carried out as described previously (Needham et al., 1995, Prot. Express. Purific., 6, 134). CHO-K1 clone 7 (CHO-CCR2B) was identified as the highest MCP-1 receptor B expresser.
CHO-CCR2B cells were grown in DMEM supplemented with 10% foetal calf serum, 2 mM glutamine, 1× Non-Essential Amino Acids, 1× Hypoxantiine and Thymidine Supplement and Penicillin-Streptomycin (at 50 μg streptomycin/ml, Gibco BRL). Membrane fragments were prepared using cell lysis/differential centrifuigation methods as described previously (Siciliano et al., 1990, J. Biol. Chem., 265, 19658). […]

On to “MCP-1: Human Monocyte Chemoattractant Protein-1, a C-C chemokine; natural ligand of the CCR2 receptor, used as assay ligand/stimulus”, for which the “concentration giving maximal cell migration (biphasic response)” value with THP-1 cells [1] is reported as 0.5-1.0 nm. Besides, the concentration giving a half-maximal response (EC50) with THP-1 cells [2] was ~2 nM. The half-inhibitory concentration (IC50) in the assay with MCP-1 receptor B (CCR2B) (cold competition with 100 pM 125I-labeled MCP-1, room temperature, read-out: IC50 of MCP-1 binding to CHO-CCR2B membrane fragments) came to 0.11 nM. Further, in the assay with MCP-1 receptor B (CCR2B) (equilibrium binding, room temperature, read-out: Kd of MCP-1 binding to CHO-CCR2B membrane fragments), the Kd is 0.12 nM.

For orientation: EC50 means the concentration needed to bring the measured effect to its halfway point. The term IC50 denotes the midpoint of a concentration-inhibition curve. The term Kd denotes the concentration at which binding is half-saturated.

(Values after patent US20030144339A1, “Indole derivatives as mcp-1 receptor antagonists” (priority 2000, published 2003).)
